Measured values published in US8741882B2, “Anti-diabetic compounds” (Sen Capital, LLC., priority 2012, dated 2014).
Counter-ions that a name gives are not always drawn.

How the values were obtained:
[1] = following oral administration; cited from earlier work
ICR mouse = assay: Animal test: blood glucose after oral glucose load in mice dosed by oral gavage; type: in vivo; conditions: for response versus vehicle control (negative group), p<0.05 / Means at 20 min. (mean value of glucose level at 20 min. minus glucose level at time zero, before glucose dosing) / blood glucose level as compared with the Vehicle group during the test period (FIG. 5): ICR mouse; for response versus vehicle control (negative group), p<0.05: Metformin Hydrochloride 150 mg/kg, Compound 2 525 and 1050 mg/kg; for Means at 20 min. (mean value of glucose level at 20 min. minus glucose level at time zero, before glucose dosing): 1.5 g/kg glucose 30 min after dosing, in mg/dL; for blood glucose level as compared with the Vehicle group during the test period (FIG. 5): oral gavage, doses as in Table 1
Procedure: Approximately 7-9-week-old ICR mouse were purchased from BioLASCO Taiwan Co., Ltd (Taipei, Taiwan).
Linear analysis of the glucose monitoring system: eight concentrations (0, 50, 100, 200, 300, 400, 500, 600 mg/dL) of glucose solution were determined duplicate. The animals were fasted approximately 4 hours before dosing. Then, the animals were administered with the test compounds via oral gavage. After 30 minutes of the test compound dosed, the animals were administered with 1.5 g/kg glucose solution (Concentration: 0.15 g/mL, Dose volume: 10 mL/kg) via oral gavage. The blood glucose was determined before the test compound dosing, before glucose dosing, and after glucose dosing in 5, 15, 20, 25, 30, 40 and 50 minutes.
The results were expressed as means and the statistical significance was evaluated by analysis of variance (ANOVA) followed by least significance difference post hoc test. A level of p<0.05 was considered statistically significant.

SMILES: CN(C)C(=N)NC(=N)N [Metformin, N,N-dimethylimidodicarbonimidic diamide]
- absorbed drug eliminated via the renal route within the first 24 hours [1]: approximately 90%
- response versus vehicle control (negative group), p<0.05 (ICR mouse): significantly different

SMILES: CN(C)C(=N)N=C(N)N [Metformin Hydrochloride]
- Means at 20 min. (mean value of glucose level at 20 min. minus glucose level at time zero, before glucose dosing) (ICR mouse; 150 mg/kg oral gavage): 125.4
- response versus vehicle control (negative group), p<0.05 (ICR mouse): significantly different
- blood glucose level as compared with the Vehicle group during the test period (FIG. 5) (ICR mouse): lowered

SMILES: COC(=O)CC[C@@H](C)[C@H]1CC[C@H]2[C@@H]3[C@H](O)C[C@@H]4C[C@H](OC(=O)NC(=N)NC(=N)N(C)C)CC[C@]4(C)[C@H]3C[C@H](O)[C@]12C [Compound 2]
- response versus vehicle control (negative group), p<0.05 (ICR mouse): significantly different
- Means at 20 min. (mean value of glucose level at 20 min. minus glucose level at time zero, before glucose dosing) (ICR mouse; Test 1, 525 mg/kg oral gavage): 225.8
- Means at 20 min. (mean value of glucose level at 20 min. minus glucose level at time zero, before glucose dosing) (ICR mouse; Test 2, 1050 mg/kg oral gavage): 225.8
- blood glucose level as compared with the Vehicle group during the test period (FIG. 5) (ICR mouse): lowered
- effect on hyperglycemia in terms of efficacy in lowering blood glucose in animals (ICR mouse; summary of Example 3): improved hyperglycemia
